Data: ChEMBL document CHEMBL4819058, “An amide mimic of desTHPdactylolide: Total synthesis and antiproliferative evaluation” (Bioorg Med Chem Lett, 2021)

Legend:
DU-145 [1] = assay: Antiproliferative activity against Docetaxel-resistant human DU-145 cells assessed as reduction in cell viability incubated for 3 days by WST-1 assay; assay type: functional, cell-based; conditions: DU-145, 72 h
PC-3 [2] = assay: Antiproliferative activity against Docetaxel-resistant human PC-3 cells assessed as reduction in cell viability incubated for 3 days by WST-1 assay; assay type: functional, cell-based; conditions: PC-3, 72 h
DU-145 [3] = assay: Antiproliferative activity against androgen-insensitive human DU-145 cells assessed as reduction in cell viability incubated for 3 days by WST-1 assay; assay type: functional, cell-based; conditions: DU-145, 72 h
LNCaP = assay: Antiproliferative activity against androgen-insensitive human LNCaP cells assessed as reduction in cell viability incubated for 3 days by WST-1 assay; assay type: functional, cell-based; conditions: 72 h
PC-3 [4] = assay: Antiproliferative activity against androgen-insensitive human PC-3 cells assessed as reduction in cell viability incubated for 3 days by WST-1 assay; assay type: functional, cell-based; conditions: PC-3, 72 h
[5] = Resistance index, ratio of IC50 for antiproliferative activity against human PC-3/DTX cells to IC50 for antiproliferative activity against human PC-3 cells; assay type: functional
[6] = Resistance index, ratio of IC50 for antiproliferative activity against human DU145/DTX cells to IC50 for antiproliferative activity against human DU145 cells; assay type: functional

| IC50 (DU-145 [1]) | IC50 (PC-3 [2]) | IC50 (DU-145 [3]) | IC50 (LNCaP) | IC50 (PC-3 [4]) | Structure (SMILES) | Ratio IC50 [5] | Ratio IC50 [6] |
| --- | --- | --- | --- | --- | --- | --- | --- |
| > 12.5 µM | > 12.5 µM | 11.1 µM | > 12.5 µM | > 12.5 µM | C/C1=C/C=C/C(=O)N[C@@H](CO)C/C(C)=C/COCC/C=C/C(=O)C1 |  |  |
| 10.2 µM | 10.2 µM | 8.48 µM | 10.9 µM | 9.76 µM | C/C1=C/C=C/C(=O)N[C@@H](C=O)C/C(C)=C/COCC/C=C/C(=O)C1 | 1.05 | 1.2 |
| 7.36 µM | 4.4 µM | 4.87 µM | 6.26 µM | 7.7 µM | COc1ccc(COC[C@H]2C/C(C)=C/COCC/C=C/C(=O)C/C(C)=C\C=C\C(=O)N2)cc1 | 0.57 | 1.51 |
|  | 2.34 µM |  |  |  | CC(=O)O[C@@]12CO[C@@H]1C[C@H](O)[C@@]1(C)C(=O)[C@H](O)C3=C(C)[C@@H](OC(=O)[C@H](O)[C@@H](NC(=O)OC(C)(C)C)c4ccccc4)C[C@@](O)([C@@H](OC(=O)c4ccccc4)[C@H]21)C3(C)C [DOCETAXEL ANHYDROUS] |  |  |
